Patent US6291470A, “Indole derivatives process for producing the same and medicinal uses of the same” (Toray Industries, Inc., priority 1992, dated 2001)
Like-named read-outs stand apart in the source and are kept apart here.

Biological target: T1, δ-opioid receptor (Mus musculus, UniProt P32300)
T1 construct: from tissue; host or cells: vas deferens of male ddy mice
Test: δ-opioid antagonist activity against DPDPE in mouse vas deferens (MVD)
Conditions: for Ratio of IC50 Values: DPDPE IC50 with/without 100 nM test compound; for Ratio of IC50 Values / Kb: 20 min; for Kb: against DPDPE, test compound 100 nM
Experimental: Using mouse vas deferens (MVD), the antagonist activity against DPDPE which is a δ-opioid agonist was checked.
In this experiment, ddy male mice were used. In a Magnus' tube which is filled with Krebes-Henseleit solution (NaCl […]; KCl 4.7 mM; CaCl2 2.5 mM; KH2 PO4 1.1 mM; NaHCO3 25 mM; glucose 11 mM) kept at 37° C., and into which an atmosphere consisting of 5% carbon dioxide and 95% oxygen was flown, vas deferens taken from the animals was suspended. Electric stimulation was applied through ring-shaped platinum electrodes mounted on the upper and lower portions of the tube at a frequency of 0.1 Hz and 5.0 mS duration. The contraction of the tissue was recorded on polygraph using isometric transducer.
Then 100 nM of the test compound was added. Twenty minutes later, DPDPE was begun to be added cumulatively. The ratio of IC50 values in the presence and absence of the test compound, Ke value (the molar concentration of the test compound necessary for translating the dose-effect curve to the curve of twice dose) and pA2 value were determined. The pA2 value was determined by the method of Shild et al (Shild, H. O., Br. J. Pharmac. Chamotehr., 4, 277 (1949)). That is, the logarithm of the test compound (log[test compound]) was plotted along the abscissa and the logarithm of the value obtained by subtracting 1 from the ratio of IC50 values was plotted in the presence and absence of the test compound [log(dose ratio-1)] along the ordinate. The pA2 value was determined from the value on the abscissa when the value on the ordinate of the obtained line is 0.

T1 sequence (P32300 whole entry): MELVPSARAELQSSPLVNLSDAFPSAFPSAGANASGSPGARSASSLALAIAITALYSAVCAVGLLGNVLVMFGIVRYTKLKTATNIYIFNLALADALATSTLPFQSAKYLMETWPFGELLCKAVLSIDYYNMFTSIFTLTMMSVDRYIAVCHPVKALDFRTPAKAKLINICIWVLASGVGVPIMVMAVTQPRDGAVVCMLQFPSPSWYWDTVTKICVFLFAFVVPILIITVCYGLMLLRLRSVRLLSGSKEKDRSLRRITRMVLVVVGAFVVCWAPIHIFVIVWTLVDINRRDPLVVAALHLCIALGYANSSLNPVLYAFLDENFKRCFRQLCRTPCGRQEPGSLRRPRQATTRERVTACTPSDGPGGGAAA

| Compound | Ratio of IC50 Values | Kb (read-out: Ke) | δ-antagonist activity relative to NTI (times that of NTI) | Kb (read-out: pA2 (converted)) |
| --- | --- | --- | --- | --- |
| NS(=O)(=O)c1ccc2[nH]c3c(c2c1)C[C@@]1(O)[C@H]2Cc4ccc(O)c5c4[C@@]1(CCN2CC1CC1)[C@H]3O5 [Compound 5, 17-cyclopropylmethyl-6,7-didehydro-4,5α-epoxy-3,14β-dihydroxy-5'-sulfamoyl-6,7-2',3'-indolomorphinan] | 4.36 | 29.8 nM | – | – |
| COC(=O)c1ccc2c3c([nH]c2c1)[C@@H]1Oc2c(O)ccc4c2[C@@]12CCN(CC1CC1)[C@H](C4)[C@]2(O)C3 [Compound 77, 17-cyclopropylmethyl-6,7-didehydro-4,5α-epoxy-3,14β-dihydroxy-6'-methoxycarbonyl-6,7-2',3'-indolomorphinan] | 742 | 0.13 nM | 1.3-1.6 times | – |
| CCOC(=O)Cc1ccc2c3c([nH]c2c1)[C@@H]1Oc2c(O)ccc4c2[C@@]12CCN(CC1CC1)[C@H](C4)[C@]2(O)C3 [Compound 49, 17-cyclopropylmethyl-6,7-didehydro-4,5α-epoxy-3,14β-dihydroxy-6'-ethoxycarbonylmethyl-6,7-2',3'-indolomorphinan] | 27.8 | 3.73 nM | – | – |
| O=[N+]([O-])c1ccc2c3c([nH]c2c1)[C@@H]1Oc2c(O)ccc4c2[C@@]12CCN(CC1CC1)[C@H](C4)[C@]2(O)C3 [Compound 79, 17-cyclopropylmethyl-6,7-didehydro-4,5α-epoxy-3,14β-dihydroxy-6'-nitro-6,7-2',3'-indolomorphinan] | 60.6 | 1.68 nM | – | – |
| O=C(NCC1CC1)c1cccc2[nH]c3c(c12)C[C@@]1(O)[C@H]2Cc4ccc(O)c5c4[C@@]1(CCN2CC1CC1)[C@H]3O5 [Compound 46, 17-cyclopropylmethyl-6,7-didehydro-4,5α-epoxy-3,14β-dihydroxy-4'-(N-cyclopropylmethylcarbamoyl)-6,7-2',3'-indolomorphinan] | 1.39 | 256 nM | – | – |
| Oc1ccc2c3c1O[C@H]1c4[nH]c5c(C(F)(F)F)cccc5c4C[C@@]4(O)[C@@H](C2)N(CC2CC2)CC[C@]314 [Compound 118, 17-cyclopropylmethyl-6,7-didehydro-4,5α-epoxy-3,14β-dihydroxy-7'-trifluoromethyl-6,7-2',3'-indolomorphinan] | 52.9 | 1.93 nM | – | – |
| Oc1ccc2c3c1O[C@H]1c4[nH]c5ccc(OC(F)(F)F)cc5c4C[C@@]4(O)[C@@H](C2)N(CC2CC2)CC[C@]314 [Compound 4, 17-cyclopropylmethyl-6,7-didehydro-4,5α-epoxy-3,14β-dihydroxy-5'-trifluoromethoxy-6,7-2',3'-indolomorphinan] | 7.95 | 14.4 nM | – | – |
| CS(=O)(=O)c1ccc2[nH]c3c(c2c1)C[C@@]1(O)[C@H]2Cc4ccc(O)c5c4[C@@]1(CCN2CC1CC1)[C@H]3O5 [Compound 6, 17-cyclopropylmethyl-6,7-didehydro-4,5α-epoxy-3,14β-dihydroxy-5'-methylsulfonyl-6,7-2',3'-indolomorphinan] | 12.6 | 8.62 nM | – | – |
| C=CCN1CC[C@]23c4c5ccc(O)c4O[C@H]2c2[nH]c4cc(C(=O)OC)ccc4c2C[C@@]3(O)[C@H]1C5 [Compound 115, 17-allyl-6,7-didehydro-4,5α-epoxy-3,14β-dihydroxy-6'-methoxycarbonyl-6,7-2',3'-indolomorphinan] | 75.4 | 1.34 nM | – | – |
| CCOC(=O)Cc1cccc2[nH]c3c(c12)C[C@@]1(O)[C@H]2Cc4ccc(O)c5c4[C@@]1(CCN2CC1CC1)[C@H]3O5 [Compound 48, 17-cyclopropylmethyl-6,7-didehydro-4,5α-epoxy-3,14β-dihydroxy-4'-ethoxycarbonylmethyl-6,7-2',3'-indolomorphinan] | 5.88 | 20.5 nM | – | – |
| CS(=O)(=O)c1cccc2c3c([nH]c12)[C@@H]1Oc2c(O)ccc4c2[C@@]12CCN(CC1CC1)[C@H](C4)[C@]2(O)C3 [Compound 190, 17-cyclopropylmethyl-6,7-didehydro-4,5α-epoxy-3,14β-dihydroxy-7'-methylsulfonyl-6,7-2',3'-indolomorphinan] | 698 | 0.14 nM | 1.3-1.6 times | – |
| Oc1ccc2c3c1O[C@H]1c4[nH]c5ccc(I)cc5c4C[C@@]4(O)[C@@H](C2)N(CC2CC2)CC[C@]314 [Compound 1, 17-cyclopropylmethyl-6,7-didehydro-4,5α-epoxy-3,14β-dihydroxy-5'-iodo-6,7-2',3'-indolomorphinan] | 8.88 | 12.7 nM | – | – |
| C=CCN1CC[C@]23c4c5ccc(O)c4O[C@H]2c2[nH]c4cccc(C(=O)OC)c4c2C[C@@]3(O)[C@H]1C5 [Compound 114, 17-allyl-6,7-didehydro-4,5α-epoxy-3,14β-dihydroxy-4'-methoxycarbonyl-6,7-2',3'-indolomorphinan] | 20.7 | 5.08 nM | – | – |
| N#Cc1ccc2[nH]c3c(c2c1)C[C@@]1(O)[C@H]2Cc4ccc(O)c5c4[C@@]1(CCN2CC1CC1)[C@H]3O5 [Compound 8, 17-cyclopropylmethyl-6,7-didehydro-4,5α-epoxy-3,14β-dihydroxy-5'-cyano-6,7-2',3'-indolomorphinan] | 3.60 | 38.5 nM | – | – |
| CN(C)S(=O)(=O)c1ccc2c3c([nH]c2c1)[C@@H]1Oc2c(O)ccc4c2[C@@]12CCN(CC1CC1)[C@H](C4)[C@]2(O)C3 [Compound 51, 17-cyclopropylmethyl-6,7-didehydro-4,5α-epoxy-3,14β-dihydroxy-6'-(N,N-dimethylsulfamoyl)-6,7-2',3'-indolomorphinan] | 33.2 | 3.11 nM | – | 2.69 nM |
| Oc1ccc2c3c1O[C@H]1c4[nH]c5c(ccc6cnccc65)c4C[C@@]4(O)[C@@H](C2)N(CC2CC2)CC[C@]314 [Compound 156, 17-cyclopropylmethyl-3,14β-dihydroxy-4,5α-epoxy-6,7-didehydromorphinano[6,7-b]pyrido[4,3-g]indole] | 26.6 | 3.91 nM | – | – |
| OCCc1ccc2c3c([nH]c2c1)[C@@H]1Oc2c(O)ccc4c2[C@@]12CCN(CC1CC1)[C@H](C4)[C@]2(O)C3 [Compound 41, 17-cyclopropylmethyl-6,7-didehydro-4,5α-epoxy-3,14β-dihydroxy-6'-(2-hydroxyethyl)-6,7-2',3'-indolomorphinan] | 22.1 | 4.74 nM | – | – |
| CS(=O)(=O)c1ccc2c3c([nH]c2c1)[C@@H]1Oc2c(O)ccc4c2[C@@]12CCN(CC1CC1)[C@H](C4)[C@]2(O)C3 [Compound 188, 17-cyclopropylmethyl-6,7-didehydro-4,5α-epoxy-3,14β-dihydroxy-6'-methylsulfonyl-6,7-2',3'-indolomorphinan] | 56.0 | 1.82 nM | – | – |
| COC(=O)c1cccc2[nH]c3c(c12)C[C@@]1(O)[C@H]2Cc4ccc(O)c5c4[C@@]1(CCN2CC1CC1)[C@H]3O5 [Compound 76, 17-cyclopropylmethyl-6,7-didehydro-4,5α-epoxy-3,14β-dihydroxy-4'-methoxycarbonyl-6,7-2',3'-indolomorphinan] | 6.82 | 17.2 nM | – | – |
| OCCc1cccc2[nH]c3c(c12)C[C@@]1(O)[C@H]2Cc4ccc(O)c5c4[C@@]1(CCN2CC1CC1)[C@H]3O5 [Compound 40, 17-cyclopropylmethyl-6,7-didehydro-4,5α-epoxy-3, 14β-dihydroxy-4'-(2-hydroxyethyl)-6,7-2',3'-indolomorphinan] | 4.60 | 27.8 nM | – | – |
| CCOC(=O)c1ccc2[nH]c3c(c2c1)C[C@@]1(O)[C@H]2Cc4ccc(O)c5c4[C@@]1(CCN2CC1CC1)[C@H]3O5 [Compound 3, 17-cyclopropylmethyl-6,7-didehydro-4,5α-epoxy-3,14β-dihydroxy-5'-ethoxycarbonyl-6,7-2',3'-indolomorphinan] | 5.34 | 23 nM | – | – |
